These results are taken from ChEMBL document CHEMBL1201862, “PubChem BioAssay data set” (2004).

Calls of active or inactive are those of the source. Some results are limits rather than exact numbers.

A short description of assay [1]: Concentration-dependent survival of SW480 colon cancer line, luminescence detection with CellTiter-Glo, half-maximal inhibitory concentration (AID 1117338). The format is functional.
A short description of assay [2]: RKO cell viability reduction, dose response, CellTiter-Glo luminescence (AID 1117322). The format is functional.
Assay [3] can be described thus: cytotoxicity toward HCT116 cells – cell-based, CellTiter-Glo luminescence, IC50, dose response (AID 1117332). The format is functional. Conditions: HCT-116.
Assay [4] in a line: cytotoxicity toward Colo320 cells – cell-based, CellTiter-Glo luminescence, IC50, dose response (AID 1117334). The format is functional. Conditions: COLO 320.
Assay [5] is described as follows: cytotoxicity toward HT-29 cells – cell-based, CellTiter-Glo luminescence, IC50, dose response (AID 1117330). The format is functional.
The nature of assay [6]: CellTiter-Glo luminescent dose response of DLD-1 viability loss (AID 1117352). The format is functional.
The nature of assay [7]: HCT116 cell viability decrease, GSK3B pretreatment – CellTiter-Glo, IC50, dose response (AID 1117339). The format is functional. Conditions: HCT-116.
The next assay concerns INS1. As to the kind of experiment: beta cell apoptosis inhibitors, cytokine rescue, dose response, luminescence, retest (AID 449756).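 Also: cell death triggered by IL-1 beta plus TNF-alpha plus IFN-gamma mixture; protective hits raise ATP signal compared with cytokine alone wells.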 Conditions: Rattus norvegicus. The format is functional, cell-based.
Another assay concerns Vero. The assay can be described thus: cells. The format is functional. The settings on record: Chlorocebus sabaeus.
Assay [8] can be described thus: HepG2 cell cytotoxicity, dose response, cytotoxicity control, ATP luminescence, cherry-pick, activator set 2 (AID 1053143). The format is functional, cell-based.
Assay [9] in a line: HeLa 2N DNA content increase, dose response, cell-based, IC50 (AID 1117349). The format is functional.
Assay [10] can be described thus: HeLa 4N DNA content increase, dose response, cell-based, IC50 (AID 1117351). The format is functional.
A further assay concerns the target Kallikrein-7 (Homo sapiens, UniProt P49862). As to the kind of experiment: Fluorescence Intensity-based biochemical primary high throughput dose response assay to identify activators of kallikrein-7 (K7) zymogen.
For assay [11], the target named is Endoplasmic reticulum aminopeptidase 1 (Homo sapiens, UniProt Q9NZ08). The assay can be described thus: ERAP1 aminopeptidase inhibitors, dose response, biochemical, cherry-pick, set 2, plate reader (AID 743314).
Chain of Endoplasmic reticulum aminopeptidase 1 (Q9NZ08 whole entry): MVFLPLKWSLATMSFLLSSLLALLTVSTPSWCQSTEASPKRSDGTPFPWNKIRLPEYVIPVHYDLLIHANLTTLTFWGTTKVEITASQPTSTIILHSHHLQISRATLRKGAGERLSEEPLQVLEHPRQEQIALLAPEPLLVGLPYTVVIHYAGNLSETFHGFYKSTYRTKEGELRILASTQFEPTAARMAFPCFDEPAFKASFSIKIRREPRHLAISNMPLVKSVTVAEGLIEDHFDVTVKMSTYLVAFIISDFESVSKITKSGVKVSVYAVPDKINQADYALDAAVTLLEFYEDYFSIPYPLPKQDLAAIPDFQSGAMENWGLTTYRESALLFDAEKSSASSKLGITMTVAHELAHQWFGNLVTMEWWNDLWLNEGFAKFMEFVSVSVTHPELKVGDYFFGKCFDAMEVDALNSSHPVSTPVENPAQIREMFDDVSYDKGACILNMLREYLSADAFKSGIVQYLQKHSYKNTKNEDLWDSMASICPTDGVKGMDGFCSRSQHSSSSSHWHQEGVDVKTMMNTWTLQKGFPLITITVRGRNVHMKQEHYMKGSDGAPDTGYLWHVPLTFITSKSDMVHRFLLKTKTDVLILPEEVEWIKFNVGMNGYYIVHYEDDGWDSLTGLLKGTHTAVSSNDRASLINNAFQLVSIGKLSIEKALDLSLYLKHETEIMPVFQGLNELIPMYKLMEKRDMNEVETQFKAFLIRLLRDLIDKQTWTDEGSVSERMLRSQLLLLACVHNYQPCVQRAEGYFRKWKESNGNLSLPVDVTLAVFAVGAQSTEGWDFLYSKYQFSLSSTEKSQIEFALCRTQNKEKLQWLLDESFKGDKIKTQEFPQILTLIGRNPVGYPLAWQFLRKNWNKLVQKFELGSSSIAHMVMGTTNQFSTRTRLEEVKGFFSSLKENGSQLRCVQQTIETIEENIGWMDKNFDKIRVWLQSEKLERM
In another assay the target is Prothrombin (Homo sapiens, UniProt P00734). As to the kind of experiment: Thrombin 1536 HTS Dose Response Confirmation. [Related pubchem assays: 1046 (Thrombin 1536 HTS; hits were confirmed in this assay)]. The format is functional.
The nature of assay [12]: Artemis endonuclease inhibitor potency, dose response, biochemical, fluorescence intensity (AID 720701).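 Also: Artemis endonuclease enzyme.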 The format is functional.
The nature of assay [13]: P. falciparum late gametocyte killing, dose response, luminescence (AID 1117278).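 Also: gametocytes exposed to compound for 24 hours.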 The format is functional, cell-based.
The nature of assay [14]: Jurkat T cell cytotoxicity, dose response, cytotoxicity control for P. falciparum gametocyte viability project, luminescence (AID 1117277).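 Also: potency reflects loss of cellular ATP meaning fewer viable cells.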 The format is functional, cell-based.

Chain of Kallikrein-7 (P49862 whole entry): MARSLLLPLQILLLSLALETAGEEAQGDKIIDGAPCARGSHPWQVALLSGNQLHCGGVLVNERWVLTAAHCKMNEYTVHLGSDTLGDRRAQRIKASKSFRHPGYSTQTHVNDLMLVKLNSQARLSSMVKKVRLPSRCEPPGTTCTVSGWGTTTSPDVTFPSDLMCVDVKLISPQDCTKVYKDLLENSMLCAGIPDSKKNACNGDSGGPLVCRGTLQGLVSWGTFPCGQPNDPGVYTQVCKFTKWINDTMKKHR

For `Cc1cc(-c2ccc(N=Nc3c(S(=O)(=O)O)cc4cc(S(=O)(=O)O)cc(N)c4c3O)c(C)c2)ccc1N=Nc1c(S(=O)(=O)O)cc2cc(S(=O)(=O)O)cc(N)c2c1O`, the IC50 in assay [1], in assay [2], in [3], in assay [4], in assay [5] and in [6] was > 20 µM (inactive) in each case. In addition, the IC50 in [7] was > 20 µM (inactive).
As for `COc1ccc2c(c1)c(/C=N/Nc1nc3ccccc3[nH]1)c(C)n2C`, the AC50 in the assay with INS1 is 10.2 µM (active); in assay [8], 26 µM (active). Also, the CC50 in the assay with Vero is 13.4 µM (active).
Consider `CCC(C)n1ncn(-c2ccc(N3CCN(c4ccc(OC[C@H]5CO[C@](Cn6cncn6)(c6ccc(Cl)cc6Cl)O5)cc4)CC3)cc2)c1=O` (some centres not stated) [ITRACONAZOLE], for which the IC50 in assay [9] and in assay [10] was > 10 µM (inactive) throughout.
Consider `COC(=O)Cc1c(C)c2ccc(O)c(CNCc3ccc(OC)c(OC)c3)c2oc1=O`, for which the EC50 at Kallikrein-7 was > 0.858 µM (active). The AC50 in [11] is 3.51 µM (active).
On to `CCC(=O)NC(=Nc1ccc(OC)cc1)Nc1nc(C)cc(C)n1`, for which, at Prothrombin, the IC50 is 1.23 µM (active).
`O=c1[nH]c(=O)n([C@H]2C[C@H](O)[C@@H](CO)O2)cc1I` [IDOXURIDINE]: the IC50 in assay [9] and in assay [10] was > 10 µM (inactive) in each case.
For the molecule `CN1[C@@H]2c3ccc(/C=C/c4ccccc4)c(=O)n3C[C@@H]2[C@@H](CO)[C@@H]1C(=O)NC1CCCC1`, in [11], the AC50 was 17.5 µM (active).
Regarding `CCN1CCc2nc(NC(=O)C(c3ccccc3)c3ccccc3)sc2C1`, the IC50 in assay [12] is > 20 µM (inactive).
For the molecule `Cc1ccc(S(=O)(=O)N2CCN(Cc3ccccc3)CC2)c(C)c1N(C)S(=O)(=O)c1ccccc1`, the IC50 in [13] is > 109 µM (inactive); in [14], > 83.3 µM (inactive).
Turning to `COc1ccc(C(=O)n2nc(-c3ccco3)nc2N)cc1`, the IC50 at Prothrombin was 0.828 µM (active).
